According to PubChem BioAssay (NCI):
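Each compound was tested at five concentrations against cells in 96-well plates for 48 hours. At the TGI there is no net growth.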

Test system: P388 leukemia
Test: NCI tumour cell line growth inhibition, 48 h

`CC[C@@]1(O)C(=O)OCc2c1cc1n(c2=O)Cc2cc3c(N)cccc3nc2-1` was tested, and the TGI was 300 nM.
